Data published in ChEMBL document CHEMBL3875196, “Novel pyrazolo[1,5-a]pyridines with improved aqueous solubility as p110α-selective PI3 kinase inhibitors” (Bioorg Med Chem Lett, 2017).

Columns and labels:
[1] = Inhibition of recombinant mouse p110alpha/N-terminal His-tagged human p85alpha expressed in baculovirus infected Sf21 cells using L-alpha-phosphatidylinositol as substrate after 1 hr in presence of [gamma33]-ATP by thin layer chromatographic analysis
PI3K p110 beta/p85 alpha = PI3K p110 beta/p85 alpha (Homo sapiens, UniProt P42338); assay: Inhibition of recombinant human p110beta/N-terminal His-tagged human p85alpha expressed in baculovirus infected sf cells using L-alpha-phosphatidylinositol as substrate after 1 hr in presence of [gamma33]-ATP by thin layer chromatographic analysis
[2] = target: T1, Phosphatidylinositol 4,5-bisphosphate 3-kinase catalytic subunit delta isoform (Homo sapiens, UniProt O00329); assay: Inhibition of p110delta (unknown origin) using L-alpha phosphatidylinositol as substrate after 1 hr in presence of [gamma33]-ATP by thin layer chromatographic analysis
T1 sequence (O00329 whole entry): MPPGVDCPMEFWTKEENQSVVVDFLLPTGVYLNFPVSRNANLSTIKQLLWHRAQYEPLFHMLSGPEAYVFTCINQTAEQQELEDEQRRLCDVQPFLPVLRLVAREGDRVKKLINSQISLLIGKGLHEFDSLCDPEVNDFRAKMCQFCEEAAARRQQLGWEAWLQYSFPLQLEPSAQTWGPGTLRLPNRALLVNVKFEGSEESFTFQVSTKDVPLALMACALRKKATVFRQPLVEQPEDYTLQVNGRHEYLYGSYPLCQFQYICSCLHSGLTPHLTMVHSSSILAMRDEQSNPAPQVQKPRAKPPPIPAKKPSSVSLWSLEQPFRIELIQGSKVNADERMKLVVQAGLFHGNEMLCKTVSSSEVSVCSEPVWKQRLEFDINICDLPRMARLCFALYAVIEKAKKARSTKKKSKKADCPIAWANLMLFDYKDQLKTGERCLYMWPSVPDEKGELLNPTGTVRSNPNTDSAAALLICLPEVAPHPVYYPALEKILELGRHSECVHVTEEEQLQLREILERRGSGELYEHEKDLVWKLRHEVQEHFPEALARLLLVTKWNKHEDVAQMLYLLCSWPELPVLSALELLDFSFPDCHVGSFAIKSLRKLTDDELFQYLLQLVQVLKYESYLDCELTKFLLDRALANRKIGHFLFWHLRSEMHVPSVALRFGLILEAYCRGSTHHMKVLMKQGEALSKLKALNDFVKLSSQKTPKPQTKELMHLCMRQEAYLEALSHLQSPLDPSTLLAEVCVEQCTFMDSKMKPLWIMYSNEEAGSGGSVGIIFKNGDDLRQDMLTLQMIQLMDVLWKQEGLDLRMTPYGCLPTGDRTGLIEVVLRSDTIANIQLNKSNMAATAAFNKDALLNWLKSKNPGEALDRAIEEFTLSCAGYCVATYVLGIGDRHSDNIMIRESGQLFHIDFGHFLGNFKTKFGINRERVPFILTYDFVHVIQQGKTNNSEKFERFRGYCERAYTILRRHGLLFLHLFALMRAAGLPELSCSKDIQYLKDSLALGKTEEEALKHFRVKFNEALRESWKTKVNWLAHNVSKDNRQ

[3] = Antiproliferative activity against wild type p110alpha expressing human NZB5 cells after 5 days by [3H]-thymidine incorporation assay; type: functional, cell-based
[4] = Antiproliferative activity against wild type p110alpha expressing human NZOV9 cells after 5 days by [3H]-thymidine incorporation assay; type: functional, cell-based
[5] = target: Phosphatidylinositol 4,5-bisphosphate 3-kinase catalytic subunit alpha isoform (Homo sapiens, UniProt P42336, H1047R); assay: Inhibition of p110alpha H1047R mutant in human HCT116 cells assessed as suppression of PKB phosphorylation at Ser473 preincubated for 15 mins followed by insulin stimulation for 5 mins by immunoblot analysis; type: cell-based, HCT-116
Mus musculus = assay: Toxicity in NIH3 mouse assessed as change in body weight at 20 to 40 mg/kg, ip; type: organism-based; conditions: in vivo
[6] = Solubility of the compound in water by HPLC analysis; type: physicochemical
[7] = Selectivity ratio of IC50 for human p110beta to IC50 for recombinant mouse p110alpha/N-terminal His-tagged human p85alpha
[8] = Selectivity ratio of IC50 for p110delta (unknown origin) to IC50 for recombinant mouse p110alpha/N-terminal His-tagged human p85alpha

Chain of Phosphatidylinositol 4,5-bisphosphate 3-kinase catalytic subunit alpha isoform (P42336 whole entry H1047R, canonical isoform): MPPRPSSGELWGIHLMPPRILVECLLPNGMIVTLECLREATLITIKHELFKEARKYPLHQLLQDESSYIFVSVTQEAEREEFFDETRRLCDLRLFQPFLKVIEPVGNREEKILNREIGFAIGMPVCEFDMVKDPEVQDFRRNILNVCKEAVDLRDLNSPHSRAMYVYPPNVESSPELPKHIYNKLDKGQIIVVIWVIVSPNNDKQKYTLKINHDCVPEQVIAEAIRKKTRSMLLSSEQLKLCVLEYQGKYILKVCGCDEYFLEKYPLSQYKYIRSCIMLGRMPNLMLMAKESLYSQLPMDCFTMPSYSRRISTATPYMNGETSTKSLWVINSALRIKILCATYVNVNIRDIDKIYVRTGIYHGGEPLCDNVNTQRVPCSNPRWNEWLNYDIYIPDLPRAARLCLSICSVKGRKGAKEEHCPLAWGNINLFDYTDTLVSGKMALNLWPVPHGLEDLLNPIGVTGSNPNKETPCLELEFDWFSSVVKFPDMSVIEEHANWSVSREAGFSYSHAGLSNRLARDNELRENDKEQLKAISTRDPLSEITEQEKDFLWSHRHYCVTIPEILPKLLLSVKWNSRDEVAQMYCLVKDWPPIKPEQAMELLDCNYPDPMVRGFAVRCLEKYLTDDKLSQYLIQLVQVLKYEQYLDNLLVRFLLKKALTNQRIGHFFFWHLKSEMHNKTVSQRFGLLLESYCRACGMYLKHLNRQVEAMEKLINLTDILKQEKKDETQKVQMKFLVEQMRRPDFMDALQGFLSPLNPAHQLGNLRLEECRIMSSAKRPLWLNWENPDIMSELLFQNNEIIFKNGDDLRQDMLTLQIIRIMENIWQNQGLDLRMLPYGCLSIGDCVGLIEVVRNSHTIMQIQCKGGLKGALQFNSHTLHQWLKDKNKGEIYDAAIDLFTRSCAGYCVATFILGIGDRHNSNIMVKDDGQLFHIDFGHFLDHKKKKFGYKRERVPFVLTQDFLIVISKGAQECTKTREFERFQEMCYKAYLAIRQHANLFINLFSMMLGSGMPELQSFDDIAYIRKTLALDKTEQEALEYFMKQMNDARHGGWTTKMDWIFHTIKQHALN
Chain of PI3K p110 beta/p85 alpha (P27986 whole entry, canonical isoform): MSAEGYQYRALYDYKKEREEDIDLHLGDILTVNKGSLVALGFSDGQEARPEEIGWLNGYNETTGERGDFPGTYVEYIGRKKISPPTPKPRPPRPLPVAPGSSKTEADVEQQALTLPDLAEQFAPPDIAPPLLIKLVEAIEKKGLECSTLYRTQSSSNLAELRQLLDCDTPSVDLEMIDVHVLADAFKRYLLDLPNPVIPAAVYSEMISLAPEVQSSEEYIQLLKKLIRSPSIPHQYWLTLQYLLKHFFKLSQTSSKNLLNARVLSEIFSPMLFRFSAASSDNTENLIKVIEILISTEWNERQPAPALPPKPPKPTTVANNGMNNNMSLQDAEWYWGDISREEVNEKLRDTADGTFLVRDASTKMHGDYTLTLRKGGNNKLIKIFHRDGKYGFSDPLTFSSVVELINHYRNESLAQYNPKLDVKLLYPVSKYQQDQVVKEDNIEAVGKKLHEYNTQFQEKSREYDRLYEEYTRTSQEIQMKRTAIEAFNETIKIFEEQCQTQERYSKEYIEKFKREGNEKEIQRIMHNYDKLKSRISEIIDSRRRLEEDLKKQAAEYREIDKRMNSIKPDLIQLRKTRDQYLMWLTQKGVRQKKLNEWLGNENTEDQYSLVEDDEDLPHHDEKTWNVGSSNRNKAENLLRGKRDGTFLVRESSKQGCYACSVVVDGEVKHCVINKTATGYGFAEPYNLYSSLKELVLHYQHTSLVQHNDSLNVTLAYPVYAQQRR
Chain of PI3K p110 beta/p85 alpha (P42338 whole entry, canonical isoform): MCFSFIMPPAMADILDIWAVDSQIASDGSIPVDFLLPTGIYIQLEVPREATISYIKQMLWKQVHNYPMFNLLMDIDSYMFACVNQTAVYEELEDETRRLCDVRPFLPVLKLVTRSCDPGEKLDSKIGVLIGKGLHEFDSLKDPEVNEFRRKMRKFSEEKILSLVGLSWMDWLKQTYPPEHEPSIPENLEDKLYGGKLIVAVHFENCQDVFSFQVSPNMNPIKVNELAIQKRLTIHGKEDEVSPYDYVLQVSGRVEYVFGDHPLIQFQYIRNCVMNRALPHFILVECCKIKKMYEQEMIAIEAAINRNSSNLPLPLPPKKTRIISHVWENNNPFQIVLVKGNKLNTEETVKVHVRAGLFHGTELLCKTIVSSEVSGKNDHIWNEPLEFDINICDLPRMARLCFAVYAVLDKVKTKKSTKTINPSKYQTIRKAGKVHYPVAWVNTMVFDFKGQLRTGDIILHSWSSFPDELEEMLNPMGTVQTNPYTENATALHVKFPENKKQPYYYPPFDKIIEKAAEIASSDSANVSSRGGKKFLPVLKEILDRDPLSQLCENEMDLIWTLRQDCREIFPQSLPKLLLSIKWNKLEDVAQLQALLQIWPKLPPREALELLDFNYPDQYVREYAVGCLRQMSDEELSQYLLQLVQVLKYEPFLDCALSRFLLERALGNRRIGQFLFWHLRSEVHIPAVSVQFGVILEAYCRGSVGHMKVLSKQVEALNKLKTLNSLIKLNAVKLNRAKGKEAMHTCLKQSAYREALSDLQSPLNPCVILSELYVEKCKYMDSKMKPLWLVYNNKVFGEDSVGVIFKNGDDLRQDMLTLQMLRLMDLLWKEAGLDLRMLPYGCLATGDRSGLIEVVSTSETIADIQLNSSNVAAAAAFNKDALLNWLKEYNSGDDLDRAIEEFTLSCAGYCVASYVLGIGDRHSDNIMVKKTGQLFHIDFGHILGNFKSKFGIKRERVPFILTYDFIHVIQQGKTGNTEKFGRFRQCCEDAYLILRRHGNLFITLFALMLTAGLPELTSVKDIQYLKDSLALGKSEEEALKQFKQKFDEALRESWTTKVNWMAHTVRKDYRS

SMILES	IC50 [1]	IC50 (PI3K p110 beta/p85 alpha)	IC50 [2]	IC50 [5]	solubility [6]	Ratio IC50 [7]	Ratio IC50 [8]	IC50 [3]	IC50 [4]	Activity (Mus musculus)
CN(C)CCCN(C)c1ccc([N+](=O)[O-])cc1S(=O)(=O)N(C)/N=C/c1cnn2ccc(C#N)cc12	0.016 µM	0.076 µM	0.1 µM	0.072 µM				0.004 µM	0.025 µM	Toxic
CN(C)CCCN(C)c1ccc([N+](=O)[O-])cc1S(=O)(=O)N(C)/N=C/c1cnn2ccc(C#N)cc12.Cl					1200 µg/mL					
C/C(=N\N(C)S(=O)(=O)c1cc([N+](=O)[O-])ccc1N(C)Cc1ccccn1)c1cnn2ccc(C#N)cc12	0.0052 µM	9.4 µM	0.575 µM			40	100	2.2 µM	2.3 µM	
CN(Cc1cccnc1)c1ccc([N+](=O)[O-])cc1S(=O)(=O)N(C)/N=C/c1cnn2ccc(C#N)cc12	0.0058 µM	0.53 µM	0.16 µM					0.54 µM	0.63 µM	
CCN(CC)CCN(C)c1ccc([N+](=O)[O-])cc1S(=O)(=O)N(C)/N=C/c1cnn2ccc(C#N)cc12	0.075 µM	0.33 µM	0.066 µM					0.5 µM	0.34 µM	
CN(Cc1ccncc1)c1ccc([N+](=O)[O-])cc1S(=O)(=O)N(C)/N=C/c1cnn2ccc(C#N)cc12	0.015 µM	0.39 µM	0.15 µM					0.044 µM	0.48 µM	
C/C(=N\NS(=O)(=O)c1cc([N+](=O)[O-])ccc1N(C)Cc1ccccn1)c1cnn2ccc(Br)cc12	0.0073 µM	5.6 µM	0.292 µM			800	2000	0.096 µM	2.8 µM	
CN(Cc1ccccn1)c1ccc([N+](=O)[O-])cc1S(=O)(=O)N(C)/N=C/c1cnn2ccc(C#N)cc12	0.01 µM	0.45 µM	0.13 µM					0.09 µM	0.33 µM	
CN(CCN1CCCCC1)c1ccc([N+](=O)[O-])cc1S(=O)(=O)N(C)/N=C/c1cnn2ccc(C#N)cc12	0.079 µM	4.2 µM	0.45 µM					0.092 µM	0.049 µM	

Further lines, with some results ahead:

IC50 [1]	IC50 (PI3K p110 beta/p85 alpha)	IC50 [2]	IC50 [5]	solubility [6]	Ratio IC50 [7]	Ratio IC50 [8]	SMILES	IC50 [3]	IC50 [4]	Activity (Mus musculus)
				900 µg/mL			CN(CCc1c[nH]cn1)c1ccc([N+](=O)[O-])cc1S(=O)(=O)N(C)/N=C/c1cnn2ccc(C#N)cc12.Cl			
				1000 µg/mL			CN(CCn1ccnc1)c1ccc([N+](=O)[O-])cc1S(=O)(=O)N(C)/N=C/c1cnn2ccc(C#N)cc12.Cl			
0.031 µM	0.15 µM	0.1 µM	0.111 µM				CN(CCn1ccnc1)c1ccc([N+](=O)[O-])cc1S(=O)(=O)N(C)/N=C/c1cnn2ccc(C#N)cc12	0.005 µM	0.045 µM	
				24 µg/mL			CN(CCc1cccnc1)c1ccc([N+](=O)[O-])cc1S(=O)(=O)N(C)/N=C/c1cnn2ccc(C#N)cc12.Cl			
				45 µg/mL			CN(CCc1ccncc1)c1ccc([N+](=O)[O-])cc1S(=O)(=O)N(C)/N=C/c1cnn2ccc(C#N)cc12.Cl			
				5.7 µg/mL			CN(CCc1ccccn1)c1ccc([N+](=O)[O-])cc1S(=O)(=O)N(C)/N=C/c1cnn2ccc(C#N)cc12.Cl			
0.018 µM	0.74 µM	0.088 µM	0.067 µM				CN(CCc1c[nH]cn1)c1ccc([N+](=O)[O-])cc1S(=O)(=O)N(C)/N=C/c1cnn2ccc(C#N)cc12	0.003 µM	0.057 µM	Toxic
